Assay results reported in US9029383B2, “Methods of treatment of skin ulcers” (The Trustees Of The University of Pennsylvania, priority 2007, dated 2015).
Entries after “also recorded” stand apart in the source; their conditions may differ.

Tests used:
[1] = system: DM/HC pigs (skin abscess); assay: Skin abscess occurrence in diabetic/hypercholesterolemic (DM/HC) pig model; type: in vivo; settings: for Development of skin abscess over the treatment period: DM/HC pigs treated for 6 months; for Further or recurring abscess after initiation of daily inhibitor treatment in pigs that already had an abscess: pigs #948 and #963, daily single dose
Method: A diabetic/diabetic hypercholestrolemic pig model (DM/HC) was developed that mimics human-like diabetes and human-like atherosclerosis. Farm pigs weighing 25-30 kg and aged ˜4 months were made diabetic with a single intravenous injection of 125 mg/kg of streptozotocin (Sicor Pharmaceuticals, Irvine, Calif.). After stabilized for 1-2 weeks, the animals with elevated levels of plasma glucose (>150 mg/dl) were fed with atherogenic (high-fat) diet as shown in Table 1 (Animal Specialties, Quakertown, Pa.) to achieve a cholesterol level of approximately 250-800 mg/dl.
For the 0.5% cholesterol diet the components are similar with the exception of 0.5% cholesterol and 20% lard. The animals were Yorkshire pigs that were castrated males at the age of […] and were obtained from Archer Farms, Darlington, Md. These feeds were prepared by Animal Specialties and Provisions, LLC, Quakertown, Pa. USA.
On days 1-2, animals were fed normal chow, followed by on days 3-14 animals were fed a diet of 0.5% cholesterol, 2% lard and on day 14, cholesterol levels were measured and the diet adjusted accordingly to increase to 2% cholesterol, 10% lard if cholesterol is <300 mg/dl. Following induction of DM/HC, cholesterol was measured until cholesterol levels are stable between 300 and 800 mg/dl, and following cholesterol stabilization, cholesterol was measured monthly. If cholesterol levels were unstable following initial stabilization phase, the diet of the animal was returned to the initial two-week measurement schedule. Monthly cholesterol levels were determined, including levels of total cholesterol, LDL, HDL, VLDL and triglycerides.
(§1) At one month after stabilization of cholersterol at 250-800 mg/dl, the animals were randomized into two experimental groups, DM/HC (hyperglycemia and hypercholesterolemia) group with no treatment and treatment group (10 mg/kg/day of SB-480848, also referred to as 1-(N-(2-(diethylamino)ethyl)-N-(4-(4-trifluoromethylphenyl)benzyl)-aminocarbonylmethyl)-2-(4-fluorobenzyl)thio-5,6-trimethylenepyrimidin-4-one). The animals were then placed into two separate rooms with control animals in one room and treated animals in the other room in order to ensure that no drug would be found in the control animals. The animals were visually inspected twice daily, the visual inspections being between 8-10 hours apart, for skin abscess, especially in the leg and foot. To be considered an abscess, the minimal abscess size was 1 mm with redness in the surrounding area. When abscesses were detected, treatment was applied. Treatment comprise assessing the size and depth of abscess, draining and cleaning the abscess of dead tissue and cells, washing with Betadine, drying and bandaging with sterile dressing, and oral regime of antibiotics. Treatment was applied daily till the infection in the open sore was cleared (absence of pus) and the open sore healed by shrinkage in size and the opening was completely closed. Cultures of the abscess were carried out to determine the pathogen responsible for the infection. […]
Two diabetic/hypercholesterolemic groups were evaluated: 1. […] In addition blood cholesterol levels were maintained between 300 and 800 mg/dl in experimental animals, this range having been determined to provide a better test model. Blood cholesterol levels were monitored in all animals on a bimonthly basis, as shown in Table 4 and adjustments were made to the fat content of the feed accordingly, as shown in Table 2. […]

[2] = Body weight and behaviour of DM/HC pigs during the study period; type: in vivo, pig
Method: as §1

CCN(CC)CCN(Cc1ccc(-c2ccc(C(F)(F)F)cc2)cc1)C(=O)Cn1c(SCc2ccc(F)cc2)nc(=O)c2c1CCC2 [SB-480848, 1-(N-(2-(Diethylamino)ethyl)-N-(4-(4-trifluoromethylphenyl)benzyl)aminocarbonylmethyl)-2-(4-fluorobenzyl)thio-5,6-trimethylenepyrimidin-4-one]
Development of skin abscess over the treatment period [1]: no pig developed any skin abscesses
Development of skin abscess over the treatment period ([1]; listed as Lp-PLA2 inhibitor): no one developed any abscess
Further or recurring abscess after initiation of daily inhibitor treatment in pigs that already had an abscess [1]: No further abscess developed; also recorded: remained skin abscesses-free
Further or recurring abscess after initiation of daily inhibitor treatment in pigs that already had an abscess ([1]; listed as Lp-PLA2 inhibitor): No further abscess developed
Average healing time of treated abscesses ([1]; pigs #948 and #963 of the treated group, abscesses developed before start of inhibitor, standard wound care): 1-2 weeks
Responsiveness and activity compared to control animals ([2]; observed during the study period): more responsive to external stimuli
Weight ([2]; treated animals at end of study, from a baseline of 26.9 kg, control 50.9 kg from 30.3 kg): 62.5 kg
